Data reported in patent publication US9587187B2, “Alkyl trityl phenyl ethers” (Rohm and Haas Company, priority 2013, dated 2017).

Assay: Solubility studies of alkyl trityl phenyl ethers in solvents at −10° C.
Type: physicochemical
Details: freezer at −10° C., checked daily for crystallization
Method: Solubility Studies: The solubility properties of the alkyl trityl phenyl ethers were determined by mixing 0.1 grams of test sample with 0.9 grams of solvent. The mixtures were warmed to 60° C. for a few minutes to make homogeneous solutions. The solutions were cooled back to room temperature, and then they were placed into a freezer at −10° C. The solutions were checked daily to see if crystallization had occurred. The solvents evaluated were ADVASOL 200H (mixed aromatics solvent from Advanced Aromatics), ADVASOL 200H ND (naphthalene-depleted mixed aromatics solvent from Advanced Aromatics), cyclohexanone, and o-sec-butyl phenol (OSBP).

[1] = 10 wt.% alkyl trityl phenyl ether in 200H - OSBP (75:25, w:w)
[2] = 10 wt.% alkyl trityl phenyl ether in 200H - cyclohexanone (75:25, w:w)
[3] = 10 wt.% alkyl trityl phenyl ether in 200H ND - OSBP (75:25, w:w)
[4] = 10 wt.% alkyl trityl phenyl ether in 200H ND - cyclohexanone (75:25, w:w)

Solubility at −10° C., Days [1]	Solubility at −10° C., Days [2]	Solubility at −10° C., Days [3]	Solubility at −10° C., Days [4]	Solubility at −10° C., Days (10 wt.% alkyl trityl phenyl ether in 200H (ADVASOL 200H mixed aromatics solvent))	Solubility at −10° C., Days (10 wt.% alkyl trityl phenyl ether in 200H ND (naphthalene-depleted mixed aromatics solvent))	Structure (SMILES)
Soluble after 76 days	Soluble after 7 days	Soluble after 76 days	Soluble after 7 days	–	–	CCCCCCOc1ccc(C(c2ccccc2)(c2ccccc2)c2ccc(C)cc2)cc1OCCCCCC [pM3,4-6, ((3,4-Bis(hexyloxy)phenyl)(p-tolyl)methylene)dibenzene]
Soluble after 102	Soluble after 102	–	–	–	–	CCCCCCCCCCOc1ccc(C(c2ccccc2)(c2cccc(C)c2)c2cccc(C)c2)cc1C(C)CC (stereo not drawn) [mmMS4-10]
Soluble after 7 days	Soluble after 7 days	Soluble after 7 days	Soluble after 7 days	Soluble after 7 days	Soluble after 7 days	CCCCCCCCCCOc1ccc(C(c2ccccc2)(c2ccccc2)c2ccc(C)cc2)cc1C(C)CC (stereo not drawn) [pMS4-10]
